Measured values taken from patent US20250011300A1, “PIPERAZINYLSULFONYLARYL COMPOUNDS FOR TREATMENT OF BACTERIAL INFECTIONS” (Hoffmann-La Roche Inc., priority 2021, published 2025).
Values after ≈ are worked out from the molar mass of the structure shown.

Key:
[1] = target: Escherichia coli LpxH (UDP-2,3-diacylglucosamine hydrolase) (Escherichia coli (strain K12), UniProt P43341); test: 50% Inhibitory Concentration (IC50) to LpxH, UMP/CMP-Glo Glycosyltransferase Assay kit; assay type: biochemical
How it was run: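 LpxH hydrolysis of UDP-2,3-diacylglucosamine to lipid X and UMP; UMP produced is converted to ATP and quantified by luciferase luminescence (UMP/CMP-Glo). Inhibition taken from reduced light output.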

[2] = system: K. pneumonia (ATCC 43816); test: Minimal Inhibitory Concentration (MIC) assay, K. pneumonia; assay type: cell-based; settings: Klebsiella pneumoniae; K. pneumoniae ATCC43816, CAMHB, 20 hours at 35° C.; read-out: MIC K. pneumoniae ATCC43816
How it was run: (§1)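 Broth microdilution in cation-adjusted Mueller Hinton broth, inoculum 5×10^5 CFU/mL, compounds 2-fold serially diluted from 10 mM DMSO stocks. Plates incubated 20 hours at 35° C in ambient air; MIC (μg/mL) is the lowest concentration preventing visible growth.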

[3] = system: E. coli (ATCC 25922); test: Minimal Inhibitory Concentration (MIC) assay, E. coli; assay type: cell-based; settings: Escherichia coli, ATCC25922; E. coli ATCC 25922, CAMHB, 20 hours at 35° C.; read-out: MIC E. coli ATCC 25922
How it was run: as §1

Escherichia coli LpxH (UDP-2,3-diacylglucosamine hydrolase), sequence (P43341 whole entry): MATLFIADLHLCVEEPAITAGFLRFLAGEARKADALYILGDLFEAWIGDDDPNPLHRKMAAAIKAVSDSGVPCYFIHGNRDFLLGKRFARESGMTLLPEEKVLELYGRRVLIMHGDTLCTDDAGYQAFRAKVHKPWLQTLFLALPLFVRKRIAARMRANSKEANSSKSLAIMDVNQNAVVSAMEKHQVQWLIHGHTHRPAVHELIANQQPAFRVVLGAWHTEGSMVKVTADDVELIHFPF

SMILES | IC50 [1] | MIC [2] | MIC [3]
N[C@@H]1CC(=O)N(c2ccc(S(=O)(=O)N3CCN(c4cc(C(F)(F)[C@H]5CNCCO5)cc(Cl)n4)CC3)cc2)C1 [Example 105, (4R)-4-amino-1-[4-[4-[6-chloro-4-[difluoro-[(2R)-morpholin-2-yl]methyl]-2-pyridyl]piperazin-1-yl]sulfonylphenyl]pyrrolidin-2-one] | 5.25 nM | 1.79 µg/mL (≈ 3.13 µM) | 1.79 µg/mL (≈ 3.13 µM)
N[C@@H]1CC(=O)N(c2ccc(S(=O)(=O)N3CCN(c4cc(C(F)(F)C5=CCNCC5)cc(Cl)n4)CC3)cc2)C1 [Example 106] | 199 nM | 1.77 µg/mL (≈ 3.12 µM) | 1.77 µg/mL (≈ 3.12 µM)
N[C@@H]1CC(=O)N(c2ccc(S(=O)(=O)N3CCN(c4cc(C(F)(F)[C@@H]5CCCNC5)cc(Cl)n4)CC3)cc2)C1 [Example 107, (4R)-4-amino-1-[4-[4-[6-chloro-4-[difluoro-[(3R)-3-piperidyl]methyl]-2-pyridyl]piperazin-1-yl]sulfonylphenyl]pyrrolidin-2-one] | 19.3 nM | 5.7 µg/mL (≈ 10 µM) | 2.85 µg/mL (≈ 5.01 µM)
N[C@@H]1CC(=O)N(c2ccc(S(=O)(=O)N3CCN(c4cc(C(F)(F)[C@H]5CCCNC5)cc(Cl)n4)CC3)cc2)C1 [Example 108, (4R)-4-amino-1-[4-[4-[6-chloro-4-[difluoro-[(3S)-3-piperidyl]methyl]-2-pyridyl]piperazin-1-yl]sulfonylphenyl]pyrrolidin-2-one] | 35.1 nM | 4.98 µg/mL (≈ 8.75 µM) | 4.98 µg/mL (≈ 8.75 µM)
N[C@@H]1CC(=O)N(c2ccc(S(=O)(=O)N3CCN(c4cc(C(F)(F)C5CNC5)cc(Cl)n4)CC3)cc2)C1 [Example 109, (4R)-4-amino-1-[4-[4-[4-[azetidin-3-yl(difluoro)methyl]-6-chloro-2-pyridyl]piperazin-1-yl]sulfonylphenyl]pyrrolidin-2-one] | 68.4 nM | 16.4 µg/mL (≈ 30.3 µM) | 16.4 µg/mL (≈ 30.3 µM)
O=C1OC(CO)CN1c1ccc(S(=O)(=O)N2CCN(c3cc(C(F)(F)[C@@H]4CNCCO4)cc(Cl)n3)CC2)cc1 (stereo partly drawn) [Example 110, 3-[4-[4-[6-Chloro-4-[difluoro-[(2S)-morpholin-2-yl]methyl]-2-pyridyl]piperazin-1-yl]sulfonylphenyl]-5-(hydroxymethyl)oxazolidin-2-one] | 3.4 nM | 0.99 µg/mL (≈ 1.68 µM) | 0.99 µg/mL (≈ 1.68 µM)
NC(=O)[C@H]1CC[C@H](C(F)(F)c2cc(Cl)nc(N3CCN(S(=O)(=O)c4ccc(N5C[C@H](N)CC5=O)cc4)CC3)c2)CC1 [Example 120, Trans-4-[[2-[4-[4-[(4R)-4-amino-2-oxo-pyrrolidin-1-yl]phenyl]sulfonylpiperazin-1-yl]-6-chloro-4-pyridyl]-difluoro-methyl]cyclohexanecarboxamide] | < 3.27 nM | 0.48 µg/mL (≈ 0.785 µM) | 0.96 µg/mL (≈ 1.57 µM)
